pIC50: −log10 of the molar value.
Molecular target: T1, Platelet-activating factor receptor (Homo sapiens, UniProt P25105)
Test: Compound was evaluated for anti-platelet activating factor potency

T1 sequence (P25105 whole entry): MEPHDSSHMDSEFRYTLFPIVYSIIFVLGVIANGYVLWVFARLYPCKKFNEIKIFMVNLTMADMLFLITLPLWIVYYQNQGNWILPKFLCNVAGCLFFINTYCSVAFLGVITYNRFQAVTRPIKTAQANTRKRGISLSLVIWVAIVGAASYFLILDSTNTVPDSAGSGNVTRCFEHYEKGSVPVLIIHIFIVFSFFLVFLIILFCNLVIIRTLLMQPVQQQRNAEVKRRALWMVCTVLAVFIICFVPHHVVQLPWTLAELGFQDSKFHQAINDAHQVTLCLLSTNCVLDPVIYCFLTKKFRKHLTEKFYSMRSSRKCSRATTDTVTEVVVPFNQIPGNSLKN

pIC50	Compound
7.39	CC1C(=O)O[C@H]2[C@H](O)C34[C@H]5C[C@@H](C(C)(C)C)[C@]36[C@@H](OC(=O)[C@@H]6OCOCc3ccccc3)O[C@@]4(C(=O)O5)[C@@]12O (stereo partly drawn)
7.54	C[C@@H]1C(=O)O[C@H]2[C@H](OCc3ccc(Cl)cc3)C34[C@H]5C[C@@H](C(C)(C)C)[C@]36[C@@H](OC(=O)[C@@H]6O)O[C@@]4(C(=O)O5)[C@@]12O (stereo partly drawn)
6.89	C[C@@H]1C(=O)O[C@H]2[C@H](O)[C@@]34[C@H]5C[C@@H](C(C)(C)C)[C@]36[C@@H](OC(=O)[C@@H]6O)O[C@@]4(C(=O)O5)[C@@]12O [GINKOLIDE B]
7.23	C[C@@H]1C(=O)O[C@H]2[C@H](OCOCc3ccccc3)C34[C@H]5C[C@@H](C(C)(C)C)[C@]36[C@@H](OC(=O)[C@@H]6O)O[C@@]4(C(=O)O5)[C@@]12O (stereo partly drawn)

Molecular target: T1, Platelet-activating factor receptor
Test: Binding affinity against platelet activating factor

Compound	Binding affinity
C[C@@H]1C(=O)O[C@H]2CC34[C@H]5C[C@@H](C(C)(C)C)C36C(=O)C(=O)O[C@H]6O[C@@]4(C(=O)O5)[C@]21O (stereo partly drawn)	3.9 µM
C[C@@H]1C(=O)O[C@H]2[C@H](O)C34[C@@H]5OC(=O)[C@]3(O[C@@H]3OC(=O)[C@H](O)C34[C@H](C(C)(C)C)[C@H]5O)[C@@]12O (stereo partly drawn)	17 µM
CC(C)(C)[C@@H]1C[C@H]2OC(=O)[C@@]34CC5OC6C[C@@]1([C@@H](O6)O3)[C@@]24C5Br (stereo partly drawn)	2.9 µM
C[C@@H]1C(=O)O[C@H]2[C@H](O)C34[C@H]5C[C@H]6C(C)(C)C[C@@]7(O)C(=O)O[C@@H](O[C@@]3(C(=O)O5)[C@@]12O)C647 (stereo partly drawn)	0.7 µM
C[C@@H]1C(=O)O[C@H]2[C@H](O)[C@@]34[C@H]5C[C@@H](C(C)(C)C)[C@]36[C@@H](OC(=O)[C@@H]6O)O[C@@]4(C(=O)O5)[C@@]12O [GINKOLIDE B]	0.6 µM
C[C@@H]1C(=O)O[C@H]2CC34[C@H]5C[C@@H](C(C)(C)C)C36[C@@H](OC(=O)[C@@H]6O)O[C@@]4(C(=O)O5)[C@]21O (stereo partly drawn)	17.8 µM
C[C@@H]1C(=O)O[C@H]2CC34[C@@H]5OC(=O)[C@]3(O[C@@H]3OC(=O)[C@H](O)C34[C@H](C(C)(C)C)[C@H]5O)[C@]21O (stereo partly drawn)	130 µM
COCO[C@@H]1C(=O)O[C@H]2O[C@@]34C[C@@H](Br)[C@H](OCOC)C35[C@@H](C[C@@H](C(C)(C)C)C215)OC4=O (stereo partly drawn)	0.6 µM

Other lines, results leading:

Binding affinity	Compound
0.3 µM	COCO[C@@H]1C(=O)OCC12C13[C@H]4C[C@@]2(C(C)(C)C)O[C@]1(C[C@@H](Cl)[C@@H]3OCOC)C(=O)O4 (stereo partly drawn)
80 µM	CC(C)(C)[C@@H]1C[C@H]2OC(=O)[C@]34CC=CC23[C@]12CC(=O)O[C@H]2O4 (stereo partly drawn)
11 µM	CC(=O)O[C@@H]1C(=O)O[C@H]2O[C@@]34CCCC35[C@@H](C[C@@H](C(C)(C)C)C215)OC4=O (stereo partly drawn)
38 µM	CC(C)(C)[C@]12C[C@H]3OC(=O)[C@@]4(C[C@@H](Cl)[C@H](Cl)C34[C@@]13COC(=O)[C@@H]3O)O2
21 µM	COCO[C@@H]1C(=O)O[C@H]2O[C@@]34CCCC35[C@@H](C[C@@H](C(C)(C)C)[C@@]215)OC4=O (stereo partly drawn)
18 µM	CC(C)(C)[C@@]12C[C@H]3OC(=O)[C@@]4(CCCC34C13COC(=O)C3=O)O2 (stereo partly drawn)
76 µM	CC(C)(C)[C@]12C[C@H]3OC(=O)[C@@]4(CCCC34[C@@]13COC(=O)[C@@H]3O)O2
9.4 µM	COCO[C@H]1C(=O)OC[C@@]12C13CCC[C@]14O[C@@]2(C(C)(C)C)C[C@H]3OC4=O
0.3 µM	COCO[C@@H]1C(=O)OCC12C13[C@H]4C[C@@]2(C(C)(C)C)O[C@]1(C[C@@H](Cl)[C@@H]3Cl)C(=O)O4 (stereo partly drawn)
9.2 µM	CC1(C)C[C@@]2(O)C(=O)O[C@H]3O[C@@]45CCCC46[C@@H](C[C@@H]1C362)OC5=O (stereo partly drawn)
1.1 µM	CC(C)(C)[C@@]12C[C@H]3OC(=O)[C@@]4(C[C@@H](Cl)[C@H](Cl)C34C13COC(=O)[C@H]3O)O2 (stereo partly drawn)
1.3 µM	CC(C)(C)[C@@H]1C[C@H]2OC(=O)[C@]34C[C@@H](Cl)[C@H](Cl)C23[C@@]12[C@@H](OC(=O)[C@@H]2O)O4 (stereo partly drawn)
120 µM	CO[C@H]1C[C@@]23[C@@H](O1)O[C@@]14CC=CC21[C@@H](C[C@H]3C(C)(C)C)OC4=O (stereo partly drawn)
13 µM	CC(C)(C)[C@@]12C[C@H]3OC(=O)[C@@]4(CCCC34C13COC(=O)[C@H]3O)O2 (stereo partly drawn)
13 µM	CC(=O)O[C@H]1C(=O)OC[C@@]12C13CCC[C@]14O[C@@]2(C(C)(C)C)C[C@H]3OC4=O
1.1 µM	CC(C)(C)[C@@]12C[C@H]3OC(=O)[C@@]4(C[C@@H](Cl)CC34C13COC(=O)[C@H]3O)O2 (stereo partly drawn)

— ChEMBL document CHEMBL1130997, “A 3D-QSAR study on ginkgolides and their analogues with comparative molecular field analysis” (Bioorg Med Chem Lett, 1998)
